The target in one assay is human TLR7 (Homo sapiens (Human), UniProt Q9NYK1). Nature of the assay: TLR7 inhibition reporter assay (HEK-Blue SEAP). The conditions noted are these: HEK-Blue human TLR7 cells, gardiquimod 7.5 μM. The format is cell-based. (In general: In a reporter assay the amount or activity of a reporter protein is the signal.)
In another assay the target is human TLR9 (Homo sapiens (Human), UniProt Q9NR96). Kind of assay: TLR9 inhibition reporter assay (HEK-Blue SEAP).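 Further: SEAP driven by an IFN-β minimal promoter with NF-κB and AP-1 sites, read after 22 h, compounds dosed 0.05 nM–50 µM, inhibition scaled between agonist plus DMSO and reference-inhibitor wells.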 To be noted: ODN2006 5 nM.
Chain of human TLR9 (Q9NR96 26-1032): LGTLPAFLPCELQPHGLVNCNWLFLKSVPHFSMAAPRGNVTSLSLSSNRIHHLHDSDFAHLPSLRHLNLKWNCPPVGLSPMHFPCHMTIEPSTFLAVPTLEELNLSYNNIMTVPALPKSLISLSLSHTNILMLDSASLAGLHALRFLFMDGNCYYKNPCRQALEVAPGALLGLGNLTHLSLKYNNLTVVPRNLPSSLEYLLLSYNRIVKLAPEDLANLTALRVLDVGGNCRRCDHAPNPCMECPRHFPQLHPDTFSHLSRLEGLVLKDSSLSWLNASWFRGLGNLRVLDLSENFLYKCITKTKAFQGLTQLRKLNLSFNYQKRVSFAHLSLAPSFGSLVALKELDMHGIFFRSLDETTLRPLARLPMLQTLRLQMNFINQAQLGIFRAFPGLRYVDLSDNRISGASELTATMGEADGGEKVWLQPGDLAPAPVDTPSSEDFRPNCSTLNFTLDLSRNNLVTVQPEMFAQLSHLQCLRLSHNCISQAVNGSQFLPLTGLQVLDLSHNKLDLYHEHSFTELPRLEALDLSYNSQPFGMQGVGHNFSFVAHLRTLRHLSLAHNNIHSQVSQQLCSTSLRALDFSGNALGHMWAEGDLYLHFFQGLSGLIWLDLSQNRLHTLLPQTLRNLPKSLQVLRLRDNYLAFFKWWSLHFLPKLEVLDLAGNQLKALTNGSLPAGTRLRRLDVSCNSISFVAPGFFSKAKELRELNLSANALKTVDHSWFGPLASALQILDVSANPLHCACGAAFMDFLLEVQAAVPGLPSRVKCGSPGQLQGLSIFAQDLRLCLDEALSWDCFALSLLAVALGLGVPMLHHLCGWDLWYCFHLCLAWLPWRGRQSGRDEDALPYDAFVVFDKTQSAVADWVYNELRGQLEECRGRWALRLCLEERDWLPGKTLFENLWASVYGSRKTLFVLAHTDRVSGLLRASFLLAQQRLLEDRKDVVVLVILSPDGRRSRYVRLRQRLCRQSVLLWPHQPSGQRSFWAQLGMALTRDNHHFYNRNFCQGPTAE
The target in another assay is human TLR8 (Homo sapiens (Human), UniProt Q9NR97). Kind of assay: TLR8 inhibition reporter assay (HEK-Blue SEAP).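 Further: SEAP driven by IFN-β minimal promoter carrying NF-κB and AP-1 sites, compounds dosed 0.05 nM to 50 µM for 22 h, inhibition scaled between agonist-plus-DMSO and reference-inhibitor wells.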 The conditions noted are these: R848 15.9 μM.
Chain of human TLR8 (Q9NR97 27-1041): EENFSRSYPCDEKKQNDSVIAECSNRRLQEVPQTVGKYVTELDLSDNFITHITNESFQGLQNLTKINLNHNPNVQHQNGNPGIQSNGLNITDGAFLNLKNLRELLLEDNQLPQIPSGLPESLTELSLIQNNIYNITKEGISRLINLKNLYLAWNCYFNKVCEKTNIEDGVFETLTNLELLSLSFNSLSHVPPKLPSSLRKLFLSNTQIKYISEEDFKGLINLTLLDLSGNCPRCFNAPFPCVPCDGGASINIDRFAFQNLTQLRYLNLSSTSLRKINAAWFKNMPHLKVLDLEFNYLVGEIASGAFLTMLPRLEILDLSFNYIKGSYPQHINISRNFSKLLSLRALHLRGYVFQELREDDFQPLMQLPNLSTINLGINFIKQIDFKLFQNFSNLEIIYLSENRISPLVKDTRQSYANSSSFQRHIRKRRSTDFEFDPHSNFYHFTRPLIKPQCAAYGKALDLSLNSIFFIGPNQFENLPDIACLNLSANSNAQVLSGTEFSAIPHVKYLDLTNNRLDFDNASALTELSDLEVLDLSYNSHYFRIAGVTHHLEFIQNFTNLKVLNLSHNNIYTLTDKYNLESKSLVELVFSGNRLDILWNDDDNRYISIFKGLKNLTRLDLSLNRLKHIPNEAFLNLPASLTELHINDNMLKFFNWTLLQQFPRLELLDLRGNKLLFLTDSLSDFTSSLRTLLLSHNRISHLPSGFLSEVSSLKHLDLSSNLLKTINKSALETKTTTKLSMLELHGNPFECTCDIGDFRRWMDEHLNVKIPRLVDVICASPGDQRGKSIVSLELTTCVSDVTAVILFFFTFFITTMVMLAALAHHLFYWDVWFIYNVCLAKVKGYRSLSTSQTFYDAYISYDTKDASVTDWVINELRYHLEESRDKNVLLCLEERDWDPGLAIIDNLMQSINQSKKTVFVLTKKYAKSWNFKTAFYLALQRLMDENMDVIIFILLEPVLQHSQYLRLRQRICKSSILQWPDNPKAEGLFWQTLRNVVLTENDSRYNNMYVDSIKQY
The mark [1] stands for this setting: read-out: TLR9 IC50, HEK-Blue human TLR9 cells.
[2] abbreviates: read-out: TLR8 IC50, HEK-Blue human TLR8 cells.
Where [3] appears, read: TLR9 IC50, HEK-Blue human TLR9 cells.
[4] abbreviates: TLR8 IC50, HEK-Blue human TLR8 cells.

Where two headings read alike, the source gives them in different places. Bounds are passed on as bounds.

Chain of human TLR7 (Q9NYK1 27-1049): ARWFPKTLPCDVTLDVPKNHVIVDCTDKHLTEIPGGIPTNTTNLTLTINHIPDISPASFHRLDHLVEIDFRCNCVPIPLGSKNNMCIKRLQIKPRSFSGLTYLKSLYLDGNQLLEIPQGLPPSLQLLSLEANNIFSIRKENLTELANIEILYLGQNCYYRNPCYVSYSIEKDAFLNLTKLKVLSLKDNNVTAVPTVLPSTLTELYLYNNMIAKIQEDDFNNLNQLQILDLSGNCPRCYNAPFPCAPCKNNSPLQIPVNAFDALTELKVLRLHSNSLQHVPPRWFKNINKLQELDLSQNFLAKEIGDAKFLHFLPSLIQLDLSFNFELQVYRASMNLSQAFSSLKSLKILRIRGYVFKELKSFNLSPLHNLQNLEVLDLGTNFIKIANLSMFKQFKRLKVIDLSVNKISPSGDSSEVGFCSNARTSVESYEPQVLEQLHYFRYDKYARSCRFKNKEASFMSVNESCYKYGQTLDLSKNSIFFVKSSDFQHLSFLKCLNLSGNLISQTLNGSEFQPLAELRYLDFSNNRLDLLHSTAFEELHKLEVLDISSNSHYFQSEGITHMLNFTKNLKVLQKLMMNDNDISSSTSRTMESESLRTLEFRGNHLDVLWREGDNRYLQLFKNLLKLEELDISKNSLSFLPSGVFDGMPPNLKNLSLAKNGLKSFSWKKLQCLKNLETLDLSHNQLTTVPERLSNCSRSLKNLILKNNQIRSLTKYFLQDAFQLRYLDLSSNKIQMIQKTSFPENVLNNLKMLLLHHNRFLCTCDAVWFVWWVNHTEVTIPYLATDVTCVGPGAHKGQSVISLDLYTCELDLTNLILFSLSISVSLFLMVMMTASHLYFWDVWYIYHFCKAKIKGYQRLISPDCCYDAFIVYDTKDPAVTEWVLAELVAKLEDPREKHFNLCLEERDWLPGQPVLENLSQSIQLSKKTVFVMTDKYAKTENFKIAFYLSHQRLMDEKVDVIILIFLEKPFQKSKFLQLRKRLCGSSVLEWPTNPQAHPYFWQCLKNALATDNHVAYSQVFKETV

One may read the IC50 as the midpoint of a concentration-inhibition curve. Consider `Cc1c(-c2[nH]c3ccc(N4C[C@@H](C)N(C(=O)CCN5CCC(F)(F)C5)C[C@@H]4C)nc3c2C(C)C)cn2ncnc2c1C` [Example 962], for which the figures for the IC50 on human TLR7, on human TLR9 (setting [1]) and at human TLR8 (setting [2]) were 3.7 nM, above 50000 nM and 17 nM, respectively.
Take `Cc1c(-c2[nH]c3ccc(N4C[C@@H](C)N(C(=O)CCN5CCOCC5(C)C)C[C@@H]4C)nc3c2C(C)C)cn2ncnc2c1C` [Example 963]: the values for the IC50 against human TLR7, at human TLR9 (setting [1]) and at human TLR8 (setting [2]) were 0.84 nM, 35300 nM and 1.9 nM, respectively.
Turning to `[2H]C([2H])([2H])NCCC(=O)N1C[C@H](C)N(c2ccc3[nH]c(-c4cn5ncnc5c(C)c4C)c(C(C)C)c3n2)C[C@H]1C` [Example 964], the values for the IC50 on human TLR7, at human TLR9 (setting [3]) and on human TLR8 (setting [4]) were 0.53 nM, 3100 nM and 0.25 nM, respectively.
On the same counts, the results for `[2H]C([2H])([2H])N(CCC(=O)N1C[C@H](C)N(c2ccc3[nH]c(-c4cn5ncnc5c(C)c4C)c(C(C)C)c3n2)C[C@H]1C)C([2H])([2H])[2H]` [Example 965] are 0.39 nM, 6480 nM and 1.1 nM.
Turning to `Cc1c(-c2[nH]c3ccc(N4CCN(C(=O)CN(C)CC5CC5)CC4)nc3c2C(C)C)cn2ncnc2c1C` [Example 966], the IC50 against human TLR7 worked out at 2.4 nM; at human TLR9 (setting [1]) it was 6020 nM; on human TLR8 (setting [2]) it was 1.3 nM.
In the same order, the values of `Cc1c(-c2[nH]c3ccc(N4CCN(C(=O)CN(C)C5COC5)CC4)nc3c2C(C)C)cn2ncnc2c1C` [Example 967] are 7.9 nM, 38700 nM and 1.2 nM.
For the compound `Cc1c(-c2[nH]c3ccc(N4CCN(C(=O)CNC5CC5)CC4)nc3c2C(C)C)cn2ncnc2c1C` [Example 968], the results for the IC50 at human TLR7, at human TLR9 (setting [1]) and at human TLR8 (setting [2]) were 1.9 nM, 16400 nM and 0.69 nM, respectively.
In the same order, the values of `Cc1c(-c2[nH]c3ccc(N4CCN(C(=O)CN(C)CCO)CC4)nc3c2C(C)C)cn2ncnc2c1C` [Example 969] are 1.3 nM, 7180 nM and 0.12 nM.
In the same order, the values of `CCNCC(=O)N1CCN(c2ccc3[nH]c(-c4cn5ncnc5c(C)c4C)c(C(C)C)c3n2)CC1` [Example 970] are 3.1 nM, 10700 nM and 0.92 nM.
On the same counts, the results for `Cc1c(-c2[nH]c3ccc(N4CCN(C(=O)CN5CCC(CO)CC5)CC4)nc3c2C(C)C)cn2ncnc2c1C` [Example 971] are 3 nM, 9250 nM and 0.85 nM.
With `Cc1c(-c2[nH]c3ccc(N4C5CNCC4COC5)nc3c2C(C)C)cn2ncnc2c1C` [Example 972], the IC50 at human TLR7 is 3.3 nM; at human TLR9 (setting [1]), 6920 nM; at human TLR8 (setting [2]) it was 3.1 nM.
In the same order, the values of `Cc1c(-c2[nH]c3ccc(N4CC5CCC(C4)N5)nc3c2C(C)C)cn2ncnc2c1C` [Example 973] are 6.7 nM, 15800 nM and 1.7 nM.
On the same counts, the results for `Cc1c(-c2[nH]c3ccc(N4C[C@H]5CCC[C@H](C4)N5)nc3c2C(C)C)cn2ncnc2c1C` [Example 974] are 1.1 nM, 3920 nM and 0.71 nM.
In the same order, the values of `Cc1c(-c2[nH]c3ccc(N4C[C@@H](C)N[C@@H](C)C4)nc3c2C(C)C)cn2ncnc2c1C` [Example 976] are 2.5 nM, 13400 nM and 0.96 nM.
Turning to `Cc1c(-c2[nH]c3ccc(N4CCNC(C)C4C)nc3c2C(C)C)cn2ncnc2c1C` (stereo not drawn) [Example 977], the results for the half-maximal inhibitory concentration (IC50) at human TLR7, on human TLR9 (setting [1]) and on human TLR8 (setting [2]) were 1.4 nM, 8600 nM and 2.1 nM, respectively.
In the same order, the values of `Cc1c(-c2[nH]c3ccc(N4C5CNCC4C5)nc3c2C(C)C)cn2ncnc2c1C` [Example 978] are 11 nM, 11500 nM and 1.8 nM.
In the same order, the values of `Cc1c(-c2[nH]c3ccc(N4[C@@H]5CC[C@H]4CNC5)nc3c2C(C)C)cn2ncnc2c1C` [Example 979] are 1.1 nM, 4290 nM and 0.8 nM.
In the same order, the values of `Cc1c(-c2[nH]c3ccc(N4C[C@H]5CC[C@@H]4CN5)nc3c2C(C)C)cn2ncnc2c1C` [Example 980] are 2.2 nM, 6270 nM and 2.3 nM.
In the case of `Cc1c(-c2[nH]c3ccc(N4C[C@H]5C[C@@H]4CN5)nc3c2C(C)C)cn2ncnc2c1C` [Example 981], the figures for the IC50 against human TLR7, on human TLR9 (setting [1]) and on human TLR8 (setting [2]) were 0.95 nM, 3070 nM and 0.51 nM, respectively.
On the same counts, the results for `Cc1c(-c2[nH]c3ccc(N4CCNCC45CC5)nc3c2C(C)C)cn2ncnc2c1C` [Example 982] are 9.8 nM, 32800 nM and 20 nM.
On the same counts, the results for `Cc1c(-c2[nH]c3ccc(N4CCN[C@@H](C(C)C)C4)nc3c2C(C)C)cn2ncnc2c1C` [Example 983] are 0.82 nM, 6520 nM and 0.12 nM.
On the same counts, the results for `Cc1c(-c2[nH]c3ccc(N4C[C@@H]5CC4CN5)nc3c2C(C)C)cn2ncnc2c1C` [Example 984] are 1 nM, 3430 nM and 0.85 nM.
Take `Cc1c(-c2[nH]c3ccc(N4C[C@H]5C[C@@H](C4)N5)nc3c2C(C)C)cn2ncnc2c1C` [Example 985]: the results for the IC50 against human TLR7, at human TLR9 (setting [1]) and at human TLR8 (setting [2]) were 1.6 nM, 3900 nM and 1.1 nM, respectively.
In the same order, the values of `CCC[C@H]1CNCCN1c1ccc2[nH]c(-c3cn4ncnc4c(C)c3C)c(C(C)C)c2n1` [Example 986] are 0.63 nM, 2820 nM and 0.38 nM.
In the same order, the values of `Cc1c(-c2[nH]c3ccc(N4CCN[C@H](CO)C4)nc3c2C(C)C)cn2ncnc2c1C` [Example 987] are 2.9 nM, 11300 nM and 0.5 nM.
In the same order, the values of `CC[C@H]1CNCCN1c1ccc2[nH]c(-c3cn4ncnc4c(C)c3C)c(C(C)C)c2n1` [Example 988] are 0.36 nM, 3770 nM and 0.23 nM.
Turning to `Cc1c(-c2[nH]c3ccc(N4CCN[C@@H](C)C4)nc3c2C(C)C)cn2ncnc2c1C` [Example 989], the IC50 against human TLR7 worked out at 0.69 nM; at human TLR9 (setting [1]) it was 7100 nM; on human TLR8 (setting [2]) it was 0.31 nM.
On the same counts, the results for `Cc1c(-c2[nH]c3ccc(N4C[C@H](C)NC[C@H]4C)nc3c2C(C)C)cn2ncnc2c1C` [Example 990] are 0.8 nM, 6020 nM and 4 nM.
In the same order, the values of `Cc1c(-c2[nH]c3ccc(N4C[C@H](C)NC[C@@H]4C)nc3c2C(C)C)cn2ncnc2c1C` [Example 991] are 0.27 nM, 5990 nM and 0.32 nM.
On the same counts, the results for `Cc1c(-c2[nH]c3ccc(N4CCNC[C@@H]4C(C)C)nc3c2C(C)C)cn2ncnc2c1C` [Example 992] are 0.66 nM, 6310 nM and 0.72 nM.
As for `Cc1c(-c2[nH]c3ccc(N4C[C@@H](C)NC[C@H]4C)nc3c2C(C)C)cn2ncnc2c1C` [Example 993], the values for the half-maximal inhibitory concentration (IC50) on human TLR7, at human TLR9 (setting [1]) and on human TLR8 (setting [2]) were 0.82 nM, 7230 nM and 1.5 nM, respectively.
In the same order, the values of `Cc1c(-c2[nH]c3ccc(N4CCN[C@H](CO)C4)nc3c2C(C)C)cn2ncnc2c1C` [Example 994] are 13 nM, 11800 nM and 3.4 nM.
On the same counts, the results for `CNC1CCN(c2ccc3[nH]c(-c4cn5ncnc5c(C)c4C)c(C(C)C)c3n2)CC1` [Example 995] are 0.56 nM, 7020 nM and 0.48 nM.
In the same order, the values of `Cc1c(-c2[nH]c3ccc(N4CCC(N(C)CC5(C)COC5)CC4)nc3c2C(C)C)cn2ncnc2c1C` [Example 996] are 1.3 nM, 11000 nM and 0.4 nM.
On to `Cc1c(-c2[nH]c3ccc(N4CCC(N(C)CC(=O)N(C)C)CC4)nc3c2C(C)C)cn2ncnc2c1C` [Example 997], for which the 50% inhibitory concentration (IC50) against human TLR7 was 2.4 nM; on human TLR9 (setting [1]), 13600 nM; on human TLR8 (setting [2]) it was 2.4 nM.
Regarding `Cc1c(-c2[nH]c3ccc(N4CCC(N(C)CCS(C)(=O)=O)CC4)nc3c2C(C)C)cn2ncnc2c1C` [Example 998], the results for the IC50 against human TLR7, at human TLR9 (setting [1]) and on human TLR8 (setting [2]) were 1.9 nM, 20000 nM and 0.44 nM, respectively.
On the same counts, the results for `Cc1c(-c2[nH]c3ccc(N4CC(NC(C)C)C4)nc3c2C(C)C)cn2ncnc2c1C` [Example 999] are 7.5 nM, 10500 nM and 2.1 nM.
In the same order, the values of `COCCNC1CN(c2ccc3[nH]c(-c4cn5ncnc5c(C)c4C)c(C(C)C)c3n2)C1` [Example 1000] are 18 nM, 6440 nM and 3.2 nM.
On the same counts, the results for `Cc1c(-c2[nH]c3ccc(NCCN)nc3c2C(C)C)cn2ncnc2c1C` [Example 1001] are 70 nM, 11700 nM and 40 nM.
On to `Cc1c(-c2[nH]c3ccc(NCCNC(=O)CN(C)C)nc3c2C(C)C)cn2ncnc2c1C` [Example 1002], for which the half-inhibitory concentration (IC50) against human TLR7 stood at 10 nM; on human TLR9 (setting [1]), 1100 nM; at human TLR8 (setting [2]), 4.6 nM.
Take `Cc1c(-c2[nH]c3ccc(N4CC5(C4)CN(C(C)C)C5)nc3c2C(C)C)cn2ncnc2c1C` [Example 1003]: the IC50 against human TLR7 was 1.8 nM; on human TLR9 (setting [1]), 3160 nM; at human TLR8 (setting [2]), 3.7 nM.
In the same order, the values of `Cc1c(-c2[nH]c3ccc(N4CC5(CN(CC(C)(C)O)C5)C4)nc3c2C(C)C)cn2ncnc2c1C` [Example 1004] are 2.1 nM, 2790 nM and 1.3 nM.

For the origin of these results see patent publication US10544143B2, “4-azaindole compounds” (BRISTOL-MYERS SQUIBB COMPANY, priority 2017, dated 2020).
